Reference: US20250057963A1, “DISCOVERY OF PIPERLONGUMINE AS A NOVEL E3 LIGASE LIGAND” (University of Florida Research Foundation, Incorporated, priority 2021, published 2025)

System: LNCaP prostate cancer cells and H1299 lung cancer cells
Experiment: Cell killing (MTS) with or without KEAP1 siRNA knockdown
Assay type: cell-based, Human
Settings: KEAP1 siRNA vs control siRNA 48 h; compound 0.1 mM (LNCaP) or 0.3 mM (H1299) for 24 h
Method: FIGS. 19A to 19B show percentages of cell killing in LNCaP (FIG. 19A) and H1299 (FIG. 19B) cells with or without KEAP1 knockdown. LNCaP and H1299 cells were treated with control siRNA or siRNAs targeting KEAP1 for 48 h and then reseeded and treated with indicated compound (0.1 mM for LNCaP cells and 0.3 mM for H1299 cells) for 24 h. The cell viability was then determined by MTS assay. The data are presented as mean±SD from three replicate cell cultures in a representative experiment. Data are representative of two independent experiments. Statistical significance was calculated with unpaired two-tailed Student's t-tests. **P<0.01; ***P<0.001; NS: not significant.
Viability (MTS) assays in various cancer cells followed the methods described in our previous report (Khan et al., 2019). The data were expressed as average % cell viability and fitted in non-linear regression curves using GraphPad Prism 9 (GraphPad Software, La Jolla, CA, USA).

SMILES: COc1cc(/C=C/C(=O)N2CCC=CC2=O)cc(OC)c1OCCN1CCN(C(=O)CN2CCC(C(=O)Nc3ncc(SCc4ncc(C(C)(C)C)o4)s3)CC2)CC1 [compound 955, (E)-N-(5-(((5-(tert-butyl)oxazol-2-yl)methyl)thio)thiazol-2-yl)-1-(2-(4-(2-(2,6-dimethoxy-4-(3-oxo-3-(6-oxo-3,6-dihydropyridin-1(2H)-yl)prop-1-en-1-yl)phenoxy)ethyl)piperazin-1-yl)-2-oxoethyl)piperidine-4-carboxamide]
- effect of KEAP1 knockdown on cytotoxicity of the compound: attenuated the cytotoxicity
